Results: ChEMBL document CHEMBL5360586, “Purpurascenines A-C, Azepino-Indole Alkaloids from Cortinarius purpurascens: Isolation, Biosynthesis, and Activity Studies on the 5-HT2A Receptor” (J Nat Prod, 2023)
Activity calls are given as the source filed them. The rule behind the calls is not given here.

Key:
HCT-116 [1] = assay: Antiproliferative activity against human HCT-116 cells assessed as inhibition of cell growth measured after 48 hrs by resazurin staining based analysis; assay type: functional; conditions: HCT-116, 48 h
[2] = biological target: T1, 5-hydroxytryptamine receptor 2A (Homo sapiens, UniProt P28223); assay: Agonist activity at N-terminal HA-tagged human 5HT2A receptor transfected in CHO-K1 cells co-expressing C-terminal EYFP assessed as maximal efficacy at 10^-11 M to 10^-5 M measured for 5.5 hrs by ONE-Glo reagent based luciferase assay relative to control; assay type: functional, cell-based
T1 sequence (P28223 whole entry): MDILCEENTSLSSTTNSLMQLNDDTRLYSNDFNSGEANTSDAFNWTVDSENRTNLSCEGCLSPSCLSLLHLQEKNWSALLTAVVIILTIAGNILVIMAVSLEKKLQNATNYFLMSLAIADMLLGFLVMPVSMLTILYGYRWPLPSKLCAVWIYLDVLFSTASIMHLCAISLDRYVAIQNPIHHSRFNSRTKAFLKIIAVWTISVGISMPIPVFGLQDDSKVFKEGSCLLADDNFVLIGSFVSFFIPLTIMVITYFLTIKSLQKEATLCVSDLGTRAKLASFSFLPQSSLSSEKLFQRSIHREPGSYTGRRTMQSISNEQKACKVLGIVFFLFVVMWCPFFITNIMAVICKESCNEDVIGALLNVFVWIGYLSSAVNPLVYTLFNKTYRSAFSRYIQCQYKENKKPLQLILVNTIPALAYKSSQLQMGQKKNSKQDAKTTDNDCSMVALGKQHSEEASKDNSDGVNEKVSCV

MCF7 [3] = assay: Antiproliferative activity against human MCF7 cells assessed as inhibition of cell growth measured after 48 hrs by resazurin staining based analysis; assay type: functional; conditions: MCF7, 48 h
[4] = biological target: T1, 5-hydroxytryptamine receptor 2A; assay: Agonist activity at N-terminal HA-tagged human 5HT2A receptor transfected in CHO-K1 cells co-expressing C-terminal EYFP assessed as maximal efficacy at 10^-4 M measured for 5.5 hrs in presence of serotonin by ONE-Glo reagent based luciferase assay; assay type: functional, cell-based; conditions: filed as agonist, dose 0.0001 M
PC-3 [5] = assay: Antiproliferative activity against human PC-3 cells assessed as inhibition of cell growth at 100 uM measured after 48 hrs by resazurin staining based analysis; assay type: functional; set-up: scale not given: the % may be the effect or the level left
PC-3 [6] = assay: Antiproliferative activity against human PC-3 cells assessed as inhibition of cell growth measured after 48 hrs by resazurin staining based analysis; assay type: functional; conditions: PC-3, 48 h
[7] = biological target: T1, 5-hydroxytryptamine receptor 2A; assay: Agonist activity at N-terminal HA-tagged human 5HT2A receptor transfected in CHO-K1 cells co-expressing C-terminal EYFP measured for 5.5 hrs in presence of serotonin by ONE-Glo reagent based luciferase assay; assay type: functional, cell-based
[8] = biological target: T1, 5-hydroxytryptamine receptor 2A; assay: Agonist activity at N-terminal HA-tagged human 5HT2A receptor transfected in CHO-K1 cells co-expressing C-terminal EYFP measured for 5.5 hrs by ONE-Glo reagent based luciferase assay; assay type: functional, cell-based
MCF7 [9] = assay: Antiproliferative activity against human MCF7 cells assessed as inhibition of cell growth upto 100 uM measured after 48 hrs by resazurin staining based analysis; assay type: functional
HCT-116 [10] = assay: Antiproliferative activity against human HCT-116 cells assessed as inhibition of cell growth upto 100 uM measured after 48 hrs by resazurin staining based analysis; assay type: functional
PC-3 [11] = assay: Antiproliferative activity against human PC-3 cells assessed as inhibition of cell growth upto 100 uM measured after 48 hrs by resazurin staining based analysis; assay type: functional

Structure (SMILES) | IC50 (HCT-116 [1]) [µM] | Emax [2] [%] | IC50 (MCF7 [3]) [µM] | Emax [4] [%] | Activity (PC-3 [5]) [%] | IC50 (PC-3 [6]) [µM] | EC50 [7] [µM] | EC50 [8] [µM] | Activity (MCF7 [9]) | Activity (HCT-116 [10]) | Activity (PC-3 [11])
CC1=N[C@H](C(=O)O)Cc2c[nH]c3c(O)ccc1c23 | > 100 | 22 | > 100 | 52 | ~30 | > 100 | 0.0254 | > 10 | – | – | –
NCCc1c[nH]c2ccc(O)cc12 | – | – | – | – | – | – | – | – | inactive | inactive | inactive
